Data on two compounds can be found in patent US20210401867A1, “PHOTOSENSITIZERS AND METHOD OF TREATING CANCER USING THE SAME” (Cheng-Wen Wu, priority 2018, published 2021).

Common to all, as to type: cell-based, human
Data set [1] deals with FaDu cells. The data set can be described thus: colony forming assay of FaDu cells. The protocol: (§1) In the following examples, FaDu cells are used in cell viability tests and colony forming assays. FaDu cells (ATCC HTB-43) is a human head-and-neck cell line with squamous phenotype. FaDu cells used in the following examples are cultured in DMEM medium supplemented with 10% fetal bovine serum (FBS) and 1% penicillin/streptomycin, in a humidified incubator maintained at 37° C. and 5% CO2.
Referring to FIGS. 9A-C, an in vitro cell viability chart of FaDu cells when treated with BrdU alone, NR alone, and BrdU and NR, is provided in accordance with an exemplary embodiment of the present disclosure. NR treatments in FIGS. 9A, 9B, and 9C are similar with the experiment procedures for FIG. 6. In samples where FaDu cells are treated with BrdU and NR, FaDu cells are incubated with BrdU for 24 hours before irradiated with NR. Referring to FIG. 9B, a colony forming assay result of FaDu cells after the treatments described in […], is provided in accordance with an exemplary embodiment of the present disclosure. The colony forming assay in FIG. 9B are proceeded as following: FaDu cells treated by different regimens are grouped and seeded in 6-well-plates with 1000 cells in each of the well and cultured for 14 days; the culture medium was replaced every 3 to 4 days; in the end of the experiment, the cells are washed twice with PBS and fixed with 4% paraformaldehyde for 15 minutes and stained with 0.1% crystal violet. Referring to FIG. 9C, a quantitative result of the colony forming assay in FIG. 9B is provided in accordance with an exemplary embodiment of the present disclosure. In FIG. 9C, the results of the colony forming assay are quantified by microscopic examination by stereomicroscope.

In data set [2] the test system is FaDu cells. The data set can be described thus: in vitro cell viability of FaDu cells. The protocol: as §1
Referring to FIG. 4, an in vitro cell viability chart of FaDu cells when treated with BrdU is provided in accordance with an exemplary embodiment of the present disclosure. FaDu cells are treated with different dosages of BrdU for 24 hours and then FaDu cells are analyzed daily for cell viability. FaDu cells are derived from pharynx squamous cell carcinoma of human, and are resistant to radiation. 3×10^5 FaDu cells are seeded in 6-cm-plates. After 24 hours, different dosages of BrdU are added into the culture medium and incubated with the FaDu cells for another 24 hours.
Referring to FIG. 5, an in vitro cell viability chart of FaDu cells when treated with IdU is provided in accordance with an exemplary embodiment of the present disclosure. FaDu cells are treated with different dosages of IdU for 24 hours and then FaDu cells are analyzed for cell viability. FaDu cells are seeded in plate and treated with IdU by similar experiment procedures with FIG. 4.
Referring to FIG. 6, an in vitro viability chart of FaDu cells when irradiated by NR is provided in accordance with an exemplary embodiment of the present disclosure. FaDu cells are treated with different radiation doses of NanoRay radiation (NR). FaDu cells are trypsinized and collected by centrifugation. The centrifuged FaDu cells are then re-suspended in PBS in a 1.5-ml tube with 5×10^4 cells in 20 μL. The tube containing centrifuged FaDu cells are then subjected to different radiation doses of NR. […] From FIGS. 4, 5 and 6, it is concluded that an optimized dosage for BrdU and IdU for in vivo experiments would be 10 μM, and the optimized radiation dose for NR is within 4 Gy.

In data set [3] the test system is FaDu cells. The data set can be described thus: flow cytometry analysis of BrdU/IdU DNA incorporation in FaDu cells. Conditions: 24 hours. The protocol:
Referring to FIG. 7A, a flow cytometry analysis of FaDu cells without BrdU treatment is provided in accordance with an exemplary embodiment of the present disclosure. FaDu cells are analyzed by flow cytometry using BrdU Flow Kits (BD Pharmingen), in absence of BrdU. FaDu cells are trypsinized, washed, fixed, permeablized, blocked, and then treated with DNase I (5 U/10^6 cells/100 μL) for 1 hour at 37° C. FaDu cells are then hybridized with anti-BrdU antibodies for 1 hour at room temperature. After several washes, FaDu cells are analyzed for fluorescent signals with LSR II Analytic Flow Cytometer (BD Biosciences). […] Referring to FIGS. 7B-D, flow cytometry analyses of FaDu cells when treated with BrdU are provided in accordance with an exemplary embodiment of the present disclosure. In FIGS. 7B-D, FaDu cells are analyzed by flow cytometry with the same experiment procedures for FIG. 7A. FaDu cells in FIGS. 7B, 7C, and 7D are respectively treated with 0.5 μM BrdU, 1 μM BrdU, and 10 μM BrdU for 24 hours. […] The DNA incorporation efficiency of BrdU is 1 μM to more than 90% of FaDu cells, therefore 1 μM would be used in the subsequent experiment as an optimized dosage of BrdU. Referring to FIG. 8A, a flow cytometry analysis of FaDu cells without IdU treatment is provided in accordance with an exemplary embodiment of the present disclosure. FaDu cells are analyzed by flow cytometry using BrdU Flow Kits (BD Pharmingen), in absence of IdU. FaDu cells are treated with similar experiment procedures as in FIG. 7A, but anti-BrdU antibodies are replaced with anti-IdU antibodies. For the detection of IdU-incorporated cells, FaDu cells being treated by anti-IdU antibodies are then hybridized with a secondary antibody conjugated by proper fluorescent dye for 1 hour at room temperature. […] Referring to FIGS. 8B-D, flow cytometry analyses of FaDu cells when treated with IdU are provided in accordance with an exemplary embodiment of the present disclosure. FaDu cells are analyzed by flow cytometry with similar experiment procedures as in 7A. […] The DNA incorporation efficiency of IdU is 10 μM to more than 90% of FaDu cells, therefore 10 μM would be used in the subsequent experiment as an optimized dosage of IdU.

In data set [4] the test system is FaDu cells. The data set can be described thus: in vitro cell viability of FaDu cells. The note with it: for synergy of combination with RS2000 versus RS2000 alone: conventional X-ray RS2000, FaDu cells.
Setting [5] is: 10 μM IdU combined with 1 Gy of 33 keV NR.

In the case of `O=c1[nH]c(=O)n([C@H]2C[C@H](O)[C@@H](CO)O2)cc1Br` [BrdU, bromodeoxyuridine], the colony forming inhibition in the data set with FaDu cells [1] (1 μM BrdU combined with 1 Gy of 14 keV NR) worked out at 57.5%. Moreover, in the data set with FaDu cells [2], the “cytotoxicity of the combination with NR” value is “strong synergistic cytotoxicity”. In the data set with FaDu cells [2] (FaDu cells, 1 μM BrdU), the toxicity entry was “almost no toxicity”. For the same compound, the figures for the FaDu cells labeled entry with FaDu cells [3] (0.5 μM BrdU) and in the data set with FaDu cells [3] (more than 1 μM of BrdU) were “about 83%” and “more than 90%”, respectively. For the same compound, the cell viability result in the data set with FaDu cells [4] (1 μM BrdU and 1Gy of RS2000 (conventional X-ray)) is given as “lower cell viability”. Further, the “synergy of combination with RS2000 versus RS2000 alone” value in the data set with FaDu cells [4] is “does not have synergistic effects”.

On to `O=c1[nH]c(=O)n([C@H]2C[C@H](O)[C@@H](CO)O2)cc1I` [IdU, iododeoxyuridine], for which the “colony forming inhibition versus IdU or NR alone” value in the data set on FaDu cells [1] (setting [5]) is recorded as “higher”. For the same compound, the “cytotoxicity of the combination with NR” value with FaDu cells [2] is “strong synergistic cytotoxicity”. The “cell viability versus IdU or NR alone” value in the data set on FaDu cells [2] (setting [5]) is given as “lower”. For the same compound, the FaDu cells labeled entry with FaDu cells [3] (IdU 0.5 μM as printed (FIG. 8B)) is reported as “about 84%”; in the data set on FaDu cells [3] (more than 10 μM of IdU) it was “more than 90%”. In addition, in the data set with FaDu cells [4], the “synergy of combination with RS2000 versus RS2000 alone” value is on record as “does not have synergistic effects”.
